Measurements from ChEMBL document CHEMBL1201862, “PubChem BioAssay data set” (2004).
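Interpolation was linear, between the two tested concentrations surrounding the appropriate level; five concentrations were tested over 48 hours in 96-well plates. GI50 marks 50% less growth.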 Active and inactive are the calls of the source. Cut-off read from the data, not from the text of the source: active = GI50 up to about 1.1 µM and inactive = higher.

Columns and labels:
Assay in all cases: inhibition of tumour cell growth, NCI panel, 48 h
K562 = test system: K562
HT-29 = test system: HT-29
OVCAR-5 = test system: OVCAR-5
NCI/ADR-RES = test system: NCI/ADR-RES
TK-10 = test system: TK-10
CAKI-1 = test system: CAKI-1
SN12C = test system: SN12C
SK-OV-3 = test system: SK-OV-3
HL-60 = test system: HL-60
SK-MEL-5 = test system: SK-MEL-5
SK-MEL-28 = test system: SK-MEL-28
KM12 = test system: KM12
MOLT-4 = test system: MOLT-4
HCT-15 = test system: HCT-15
ACHN = test system: ACHN
LOX IMVI = test system: LOX IMVI
COLO 205 = test system: COLO 205
SK-MEL-2 = test system: SK-MEL-2
U-251 = test system: U-251
Hs-578T = test system: Hs-578T
CCRF-CEM = test system: CCRF-CEM
EKVX = test system: EKVX
T47D = test system: T47D
NCI-H23 = test system: NCI-H23
RXF 393 = test system: RXF 393
OVCAR-4 = test system: OVCAR-4
SNB-19 = test system: SNB-19
A549 = test system: A549
MDA-MB-231 = test system: MDA-MB-231
UO-31 = test system: UO-31
MDA-MB-435 = test system: MDA-MB-435
RPMI-8226 = test system: RPMI-8226
SF-295 = test system: SF-295
MCF7 = test system: MCF7
SW-620 = test system: SW-620
BT-549 = test system: BT-549
786-0 = test system: 786-0
M14 = test system: M14
NCI-H460 = test system: NCI-H460
HCT-116 = test system: HCT-116
NCI-H522 = test system: NCI-H522
HCC 2998 = test system: HCC 2998
OVCAR-8 = test system: OVCAR-8
IGROV-1 = test system: IGROV-1
NCI-H226 = test system: NCI-H226
SR = test system: SR
UACC-257 = test system: UACC-257
SNB-75 = test system: SNB-75
SF-268 = test system: SF-268
PC-3 = test system: PC-3
MDA-N = test system: MDA-N
A498 = test system: A498
OVCAR-3 = test system: OVCAR-3
HOP-62 = test system: HOP-62
DU-145 = test system: DU-145
HOP-92 = test system: HOP-92
UACC-62 = test system: UACC-62

**Q.** Which GI50 (K562) does the source give for `CC/C=C\C/C=C\C/C=C\CCCCCCCC(=O)OC(COC(=O)CCCCCCCCCCCCCCCCC)COC1OC(CO)C(O)C(O)C1O` (configuration not stated) here?
**A.** 18.6 µM (inactive)

**Q.** What about the GI50 (HT-29) of the same molecule?
**A.** 22.8 µM (inactive)

**Q.** And the GI50 (OVCAR-5)?
**A.** > 25 µM (inactive)

**Q.** What about the GI50 (NCI/ADR-RES) of the same molecule?
**A.** 23.6 µM (inactive)

**Q.** And the GI50 (TK-10)?
**A.** > 25 µM (inactive)

**Q.** What about the GI50 (CAKI-1) of the same molecule?
**A.** > 25 µM (inactive)

**Q.** And the GI50 (SN12C)?
**A.** > 25 µM (inactive)

**Q.** And the GI50 (SK-OV-3)?
**A.** > 25 µM (inactive)

**Q.** What about the GI50 (HL-60) of the same molecule?
**A.** > 25 µM (inactive)

**Q.** And the GI50 (SK-MEL-5)?
**A.** > 25 µM (inactive)

**Q.** And the GI50 (SK-MEL-28)?
**A.** > 25 µM (inactive)

**Q.** What about the GI50 (KM12) of the same molecule?
**A.** > 25 µM (inactive)

**Q.** And the GI50 (MOLT-4)?
**A.** > 25 µM (inactive)

**Q.** And the GI50 (HCT-15)?
**A.** > 25 µM

**Q.** And the GI50 (ACHN)?
**A.** > 25 µM (inactive)

**Q.** What about the GI50 (LOX IMVI) of the same molecule?
**A.** > 25 µM (inactive)

**Q.** What about the GI50 (COLO 205) of the same molecule?
**A.** > 25 µM (inactive)

**Q.** What about the GI50 (SK-MEL-2) of the same molecule?
**A.** > 25 µM (inactive)

**Q.** What about the GI50 (U-251) of the same molecule?
**A.** > 25 µM (inactive)

**Q.** And the GI50 (Hs-578T)?
**A.** 2.59 µM (inactive)

**Q.** And the GI50 (CCRF-CEM)?
**A.** > 25 µM (inactive)

**Q.** And the GI50 (EKVX)?
**A.** 4.7 µM (inactive)

**Q.** And the GI50 (T47D)?
**A.** > 25 µM (inactive)

**Q.** What about the GI50 (NCI-H23) of the same molecule?
**A.** > 25 µM (inactive)

**Q.** And the GI50 (RXF 393)?
**A.** > 25 µM (inactive)

**Q.** And the GI50 (OVCAR-4)?
**A.** > 25 µM (inactive)

**Q.** What about the GI50 (SNB-19) of the same molecule?
**A.** > 25 µM (inactive)

**Q.** What about the GI50 (A549) of the same molecule?
**A.** > 25 µM (inactive)

**Q.** What about the GI50 (MDA-MB-231) of the same molecule?
**A.** > 25 µM (inactive)

**Q.** And the GI50 (UO-31)?
**A.** > 25 µM (inactive)

**Q.** What about the GI50 (MDA-MB-435) of the same molecule?
**A.** > 25 µM (inactive)

**Q.** What about the GI50 (RPMI-8226) of the same molecule?
**A.** 8.57 µM (inactive)

**Q.** And the GI50 (SF-295)?
**A.** > 25 µM (inactive)

**Q.** And the GI50 (MCF7)?
**A.** > 25 µM (inactive)

**Q.** What about the GI50 (SW-620) of the same molecule?
**A.** > 25 µM (inactive)

**Q.** What about the GI50 (BT-549) of the same molecule?
**A.** > 25 µM (inactive)

**Q.** And the GI50 (786-0)?
**A.** > 25 µM (inactive)

**Q.** What about the GI50 (M14) of the same molecule?
**A.** > 25 µM (inactive)

**Q.** What about the GI50 (NCI-H460) of the same molecule?
**A.** > 25 µM (inactive)

**Q.** And the GI50 (HCT-116)?
**A.** > 25 µM (inactive)

**Q.** And the GI50 (NCI-H522)?
**A.** 9.53 µM (inactive)

**Q.** What about the GI50 (HCC 2998) of the same molecule?
**A.** > 25 µM (inactive)

**Q.** And the GI50 (OVCAR-8)?
**A.** 15.9 µM (inactive)

**Q.** What about the GI50 (IGROV-1) of the same molecule?
**A.** 12.3 µM (inactive)

**Q.** What about the GI50 (NCI-H226) of the same molecule?
**A.** > 25 µM (inactive)

**Q.** And the GI50 (SR)?
**A.** > 25 µM (inactive)

**Q.** And the GI50 (UACC-257)?
**A.** > 25 µM (inactive)

**Q.** And the GI50 (SNB-75)?
**A.** > 25 µM (inactive)

**Q.** What about the GI50 (SF-268) of the same molecule?
**A.** > 25 µM (inactive)

**Q.** What about the GI50 (PC-3) of the same molecule?
**A.** 22.8 µM (inactive)

**Q.** And the GI50 (MDA-N)?
**A.** > 25 µM (inactive)

**Q.** What about the GI50 (A498) of the same molecule?
**A.** > 25 µM (inactive)

**Q.** And the GI50 (OVCAR-3)?
**A.** 7.74 µM (inactive)

**Q.** What about the GI50 (HOP-62) of the same molecule?
**A.** > 25 µM (inactive)

**Q.** What about the GI50 (DU-145) of the same molecule?
**A.** > 25 µM (inactive)

**Q.** What about the GI50 (HOP-92) of the same molecule?
**A.** > 25 µM (inactive)

**Q.** What about the GI50 (UACC-62) of the same molecule?
**A.** > 25 µM (inactive)
